Measurements reported in US20250043299A1, “POINT MUTATIONS THAT BOOST AROMATIC AMINO ACID PRODUCTION AND CO2 ASSIMILATION IN PLANTS” (Wisconsin Alumni Research Foundation, priority 2021, published 2025).

Legend:
[1] = target: T1, DHS1^WT (Arabidopsis thaliana, UniProt P29976); experiment: DHS enzyme assay (colorimetric), recombinant DHS1^WT; format: biochemical; settings: recombinant enzyme; read-out: IC50 of effector molecule on DHS1^WT
T1 construct: without the predicted plastid transit peptide (amino acid residues; 49-525, 34-507, and 52-527, respectively); made in house; host or cells: E. coli Rosetta-2
T1 sequence (P29976 49-525): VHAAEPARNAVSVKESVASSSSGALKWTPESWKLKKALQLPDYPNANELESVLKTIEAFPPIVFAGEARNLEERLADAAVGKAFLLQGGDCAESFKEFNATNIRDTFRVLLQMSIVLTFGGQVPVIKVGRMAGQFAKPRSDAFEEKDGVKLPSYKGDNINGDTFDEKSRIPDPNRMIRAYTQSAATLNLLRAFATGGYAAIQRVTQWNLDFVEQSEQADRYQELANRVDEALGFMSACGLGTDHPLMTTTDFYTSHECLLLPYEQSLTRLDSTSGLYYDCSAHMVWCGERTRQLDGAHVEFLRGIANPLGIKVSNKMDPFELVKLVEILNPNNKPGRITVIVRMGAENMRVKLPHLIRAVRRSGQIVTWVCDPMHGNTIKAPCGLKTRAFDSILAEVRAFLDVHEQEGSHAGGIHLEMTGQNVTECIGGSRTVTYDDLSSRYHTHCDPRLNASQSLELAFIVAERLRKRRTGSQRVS
Experimental: (§1) To generate recombinant DHS proteins the pET28a vectors carrying the A. thaliana DHS1 (AtDHS1), AtDHS2, or AtDHS3 WT sequence without the predicted plastid transit peptide (amino acid residues; 49-525, 34-507, and 52-527, respectively) were expressed in E. coli Rosetta-2 cells and purified using Ni-affinity chromatography, exactly as was conducted previously (9). To generate DHS proteins with individual sota mutations via site-directed mutagenesis, these pET28a plasmid templates were diluted by 500-fold, mixed with 0.04 U/μL Phusion DNA polymerase (Thermo Scientific), 0.2 mM deoxynucleoside triphosphates (dNTPs), 1× Phusion reaction buffer (Thermo Scientific), and 0.5 μM forward and reverse mutagenesis primers (Table 10). The PCR reaction was run using the following protocol: 98° C. for 30 s followed by 20 cycles of 10 s at 98° C., 20 s at 70° C., 4.5 min at 72° C. with a final extension at 72° C. for 10 min. The PCR products were purified using a QIAquick Gel Extraction Kit (QIAGEN), treated with FastDigest DpnI (Thermo Scientific) to digest methylated plasmid template DNA for 20 min at 37° C., and transformed into E. coli cells. The mutagenized pET28a plasmids were sequenced to confirm that no errors were introduced during the mutagenesis process.
The DHS enzyme assays were conducted using the colorimetric method that we recently described (9). Briefly, the enzyme solution (7.7 μl) containing 50 mM Hepes (pH 7.4) was preincubated with an effector molecule(s) at room temperature for 15 min. For assays using recombinant protein and enzyme fractions isolated from plant leaves, 0.01 to 0.1 μg and approximately 50 μg of proteins were used, respectively. After adding 0.5 μl of 0.1 M dithiothreitol, the samples were further incubated at room temperature for 15 min. During these incubations, the substrate solution containing 50 mM Hepes (pH 7.4), 2 mM MnCl2, 4 mM E4P, and 4 mM PEP at final concentration was preheated at 37° C. The enzyme reaction was started by adding 6.8 μl of the substrate solution, then incubated at 37° C. for 30 min, and terminated by adding 30 μl of 0.6 M trichloroacetic acid. After a brief centrifugation, 5 μl of 200 mM NaIO4 (sodium meta-periodate) in 9 N H3PO4 was added to oxidize the enzymatic product and to incubate at 25° C. for 20 min. To stop the oxidation reaction, 20 μl of 0.75 M NaAsO2 (sodium arsenite), which was dissolved in 0.5 M Na2SO4 and 0.05 M H2SO4, was added and immediately mixed. After 5 min of incubation at room temperature, one-third of the sample solution was transferred to a new tube to be mixed with 50 μl of 40 mM thiobarbituric acid and incubated at 99° C. for 15 min in a thermal cycler. The mixture was added to 600 μl of cyclohexanone in eight-strip solvent-resistant plastic tubes, mixed vigorously, and centrifuged at 4500 g for 3 min to separate water- and cyclohexanone-based layers for the extraction off the developed pink chromophore. The absorbance of the pink supernatant was read at 549 nm with the microplate reader (Infinite 200 PRO, TECAN) to calculate DAHP production with the molar extinction coefficient at 549 nm (ε=549 nm) of 4.5×10^4 M^−1 cm^−1. Reaction mixtures with boiled enzymes were run in parallel and used as negative controls to estimate the background signal.

[2] = target: DHS3^WT; experiment: DHS enzyme assay, recombinant DHS3^WT; format: biochemical, Arabidopsis thaliana; settings: read-out: IC50 of effector molecule on DHS3^WT
Experimental: as §1, with “To” for “To generate recombinant DHS proteins the pET28a vectors carrying the A. thaliana DHS1 (AtDHS1), AtDHS2, or AtDHS3 WT sequence without the predicted plastid transit peptide (amino acid residues; 49-525, 34-507, and 52-527, respectively) were expressed in E. coli Rosetta-2 cells and purified using Ni-affinity chromatography, exactly as was conducted previously (9). To”
The DHS enzyme assays were conducted using the colorimetric method that we recently described (9). Briefly, the enzyme solution (7.7 μl) containing 50 mM Hepes (pH 7.4) was preincubated with an effector molecule(s) at room temperature for 15 min. For assays using recombinant protein and enzyme fractions isolated from plant leaves, 0.01 to 0.1 μg and approximately 50 μg of proteins were used, respectively. […]

[3] = target: DHS3^G1; experiment: DHS enzyme assay, recombinant DHS3^G1; format: biochemical, Arabidopsis thaliana
Experimental: as §1, with “To” for “To generate recombinant DHS proteins the pET28a vectors carrying the A. thaliana DHS1 (AtDHS1), AtDHS2, or AtDHS3 WT sequence without the predicted plastid transit peptide (amino acid residues; 49-525, 34-507, and 52-527, respectively) were expressed in E. coli Rosetta-2 cells and purified using Ni-affinity chromatography, exactly as was conducted previously (9). To”
(§2) The DHS enzyme assays were conducted using the colorimetric method that we recently described (9). Briefly, the enzyme solution (7.7 μl) containing 50 mM Hepes (pH 7.4) was preincubated with an effector molecule(s) at room temperature for 15 min. For assays using recombinant protein and enzyme fractions isolated from plant leaves, 0.01 to 0.1 μg and approximately 50 μg of proteins were used, respectively. After adding 0.5 μl of 0.1 M dithiothreitol, the samples were further incubated at room temperature for 15 min. During these incubations, the substrate solution containing 50 mM Hepes (pH 7.4), 2 mM MnCl2, 4 mM E4P, and 4 mM PEP at final concentration was preheated at 37° C. The enzyme reaction was started by adding 6.8 μl of the substrate solution, then incubated at 37° C. for 30 min, and terminated by adding 30 μl of 0.6 M trichloroacetic acid. After a brief centrifugation, 5 μl of 200 mM NaIO4 (sodium meta-periodate) in 9 N H3PO4 was added to oxidize the enzymatic product and to incubate at 25° C. for 20 min. To stop the oxidation reaction, 20 μl of 0.75 M NaAsO2 (sodium arsenite), which was dissolved in 0.5 M Na2SO4 and 0.05 M H2SO4, was added and immediately mixed. […]

[4] = target: DHS3^H1; experiment: DHS enzyme assay, recombinant DHS3^H1; format: biochemical, Arabidopsis thaliana
Experimental: as §1, with “To” for “To generate recombinant DHS proteins the pET28a vectors carrying the A. thaliana DHS1 (AtDHS1), AtDHS2, or AtDHS3 WT sequence without the predicted plastid transit peptide (amino acid residues; 49-525, 34-507, and 52-527, respectively) were expressed in E. coli Rosetta-2 cells and purified using Ni-affinity chromatography, exactly as was conducted previously (9). To”
as §2

[5] = test system: all DHS^WT isoforms; experiment: DHS enzyme assay, summary over all DHS^WT isoforms; format: biochemical, Arabidopsis thaliana; settings: for inhibition of all DHS^WT isoforms: FIG. 2D
Experimental: as §1
The DHS enzyme assays were conducted using the colorimetric method that we recently described (9). Briefly, the enzyme solution (7.7 μl) containing 50 mM Hepes (pH 7.4) was preincubated with an effector molecule(s) at room temperature for 15 min. For assays using recombinant protein and enzyme fractions isolated from plant leaves, 0.01 to 0.1 μg and approximately 50 μg of proteins were used, respectively. After adding 0.5 μl of 0.1 M dithiothreitol, the samples were further incubated at room temperature for 15 min. […] The absorbance of the pink supernatant was read at 549 nm with the microplate reader (Infinite 200 PRO, TECAN) to calculate DAHP production with the molar extinction coefficient at 549 nm (ε=549 nm) of 4.5×10^4 M^−1 cm^−1. […]

Structure (SMILES)	IC50 [1]	IC50 [2]	inhibition of all DHS^WT isoforms [5]	other results
O=C(O)Cc1cc(O)ccc1O [HGA, homogentisate]	253 µM	102 µM	effectively inhibited	IC50 ([3]; read-out: IC50 of effector molecule on DHS3^G1): 375 µM; IC50 ([4]; read-out: IC50 of effector molecule on DHS3^H1): 405 µM; IC50 ([5]; range over the three isoforms): 75 to 250 µM
O=C(O)C(=O)Cc1ccc(O)cc1 [HPP, 4-Hydroxyphenylpyruvate]		516 µM	effectively inhibited	
O=C(O)C(=O)Cc1c[nH]c2ccccc12 [IPA, indole-3-pyruvate]	241 µM			
N[C@@H](Cc1c[nH]c2ccccc12)C(=O)O [Trp, tryptophan]				IC50 of effector molecule on DHS3^G1 [3]: Not inhibited; IC50 of effector molecule on DHS3^H1 [4]: Not inhibited
